From patent US20190388495A1, “Pharmaceutical Composition for Preventing or Treating Hypersensitivity Immune Disease, and Method for Producing Same” (QURATIS INC., priority 2017, published 2019)

test system: plasmacytoid dendritic cells; assay: IL-10 secretion from plasmacytoid dendritic cells induced with various toll-like receptor agonists, ELISA (Example 3); assay type: cell-based, C57BL/6 mice; conditions: stimulated with ODN1826 1 μg/ml, 24 hours; vs non-treatment
From the text: In order to check the immune tolerance inducing effect of various toll-like receptor agonists, differentiation into the plasmacytoid dendritic cells was induced by the same method as in Example 1. Ligands listed in Table 2 were used as the toll-like receptor agonist. From the cells obtained after 8 days of culture, the plasmacytoid dendritic cells were separated at a purity equal to or greater than 85% by a plasmacytoid dendritic cell separation kit (Miltenyi Biotec, Auburn, Calif.) and a magnetic cell sorting system (Vario MACS: Miltenyi Biotec, Auburn, Calif.). The separated cells (5×10^5 cells/ml) were inoculated into a 48 well plate. ODN1826 (1 μg/ml) was applied thereto and the cells were cultured for 24 hours. Then, supernatant was separated. The secretion pattern of the immunosuppressive cytokine IL-10 was then checked by ELISA (enzyme linked immunosorbent assay).

Compound	expression level of IL-10 from plasmacytoid dendritic cells differentiated via treatment with the agonist
Pam3 [TLR2 agonist]	significantly increased
CC(C)Cn1cnc2c(N)nc3ccccc3c21 [TLR7 agonist, Imiquimod]	significantly increased
LPS [TLR4 agonist]	significantly increased
